One experiment concerns STAT6 activation. Put plainly: STAT6 activation inhibition test (IL-4-induced alkaline phosphatase STAT6 reporter gene assay). The format is cell-based, human. As to conditions: Homo sapiens, HEK293; concentration giving 50% suppression of alkaline phosphatase activity induced by IL-4 (1 ng/mL), 16 hours; 293 cells stably expressing STAT6 gene and STAT6 reporter gene. On the procedure:
The inhibitory activity on STAT6 activation of the compound according to present invention was evaluated according to the following test.
1) Construction of the STAT6 Reporter Gene
The oligonucleotide of SEQ ID: 1 resuting from three STAT6 binding regions of the human immunoglobulin germline ε gene promoter linked togeter, and the complementary strand thereof were mixed, and after thermal denaturation and annealing, the 5′ and the 3′ ends were respectively cut with the restriction enzymes Kpn I (TaKaRa Shuzo Code No. 1068A) and Xba I (TaKaRa ShuzoCode No. 1093A), and the resulting fragment was cloned into the Kpn I/Xba I site of the pUG-BGH-PLAP vector (described in Molecular Pharmacology, 49: 860–873 1996). In addition, the TK promoter region of the herpesvirus for inducing general transcription factors was cloned into the Xba I/Hind III (TaKaRa ShuzoCode No. 1060A) site of the pUG-BGH-PLAP vector. Then, to collect a stable expression cell strain, the neomycin resistance gene, that is a PGK-neo expression cassette, was incorporated into the Sal I (TaKaRa Shuzo, Code No. 1080A) site of this vector. Cloning of the TK promoter and the PGK-neo expression cassette was carried out according to Molecular Pharmacology, 49: 860–873 1996.
2) Construction of the STAT6 Expression Vector
Using the oligonucleotide of SEQ ID: 2 containing the initiation codon of the STAT6 gene and the oligonucleotide of SEQ ID: 3 containing the stop codon, Total RNA was prepared from human peripheral blood cells with the RNeasy Mini kit (OIAGEN, Code No. 74104). Thereafter, a reverse transcription reaction was carried out with the Takara RNA LA PCR kit (TaKaRa Shuzo, Code No. RR012A) to prepare cDNA, and using the primers of SEQ ID: 2 and 3, a PCR reaction was carried out, to amplify the STAT6 gene.
PCR product was digested with EcoR I (TaKaRa Shuzo, Code No. 1040A) and Xho I (TaKaRa Shuzo, 1094A), thereafter, the digested fragment was isolated on an agarose gel. The isolated fragment was incorporated into the vector fragment derived from the EcoR I/Xho I digestion of the pcDNA3.1 (+) (invtrogen, Code No. U790-20) vector.
3) Transformation and Preparation of a Stable Expression Cell Strain
In a Falcon 6-well plate for tissue culture (Becton Dickinson, Code No. 35-3046), 3.0×10^5 of 293 cells derived from human embryo kidney (American Type Culture Collection) were distributed and cultured overnight. The STAT6 reporter gene (1.5 μg), the STAT6 gene (1.5 μg) that were prepared and lipofectamine (GIBCO BRL, Code No. 18324-012) (20 μL) were mixed in OPTI-MEM culture medium (GIBCO BRL, Code No. 31985-070) (0.3 mL), and allowed to stand at room temperature for 20 minutes. Thereafter, the OPTI-MEM culture medium (1.2 mL) was further added, OPTI-MEM culture medium not containing fetal calf serum was added to washed cells, which were cultured for 2 hours. A culture medium (1.5 mL) containing fetal calf serum was added, and the cells were cultured for 19 more hours. The culture was continued by exchanging the culture medium and adding Geneticin (SIGMA, Code No. G-5013) so as to obtain 1 mg/mL, and cells with drug tolerance were selected. The selected drug tolerant cells were suspended in a culture medium containing 1 mg/mL of Geneticin, and distributed in a 96-well microplate (Becton Dickinson, Code No. 35-3072) so as to obtain 0.5 cells/well to carrry out cloning, and the clones expressing alkaline phosphatase in response to IL-4 were collected.
4) STAT6 Activation Inhibition Test
Cells stably expressing the STAT6 gene and the STAT6 reporter gene, and expressing alkaline phosphatase in response to IL-4 were distributed in a 96-well microplate (Becton Dickinson, Code No. 35-3072) so as to obtain 5000 cells/180 μL/well, and cultured overnight. […]
Broadly, the IC50 is the concentration that inhibits the measured activity by half. A high value points to lower potency. In turn, `CN(CC(O)c1ccc(F)cc1)S(=O)(=O)c1csc2c1CCC/C2=N/OC(N)=O` (stereo not drawn) [Example 87, (7Z)-7-{[(Aminocarbonyl)oxy]imino}-3-{[[2-(4-fluorophenyl)-2-hydroxyethyl](methyl)amino]sulfonyl}-4,5,6,7-tetrahydro-1-benzothiophene] came in with an IC50 of 0.5 nM.

For the compound `CN(CC(O)c1ccc(F)cc1)S(=O)(=O)c1c(N)sc2c1CCC/C2=N/O` (stereo not drawn) [Example 26, (7Z)-2-Amino-7-hydroxyimino-4,5,6,7-tetrahydro-benzo[b]-thiophene-3-sulfonic acid [2-(4-fluorophenyl)-2-hydroxyethyl]-methyl-amide], half-maximal inhibition (IC50) required 2.6 nM.

`CN(CCc1ccccc1)C(=O)c1csc2c1CCC/C2=N/O` [Example 110, (7Z)-7-Hydroxyimino-4,5,6,7-tetrahydrobenzo[b]thiophene-3-carboxylic acid methylphenethyl amide] returned an IC50 of 0.32 nM.

In the case of `CN(C[C@H](O)c1ccc(F)cc1)S(=O)(=O)c1csc2c1CCC/C2=N/O` [Example 14, (7Z)-N-[(2R)-2-(4-Fluorophenyl)-2-hydroxyethyl]-7-(hydroxyimino)-N-methyl-4,5,6,7-tetrahydro-1-benzothiophene-3-sulfonamide], the IC50 turned out to be 30 nM.

Consider `CN(CC(O)c1ccc(F)cc1)S(=O)(=O)c1csc2c1CCC/C2=N/OC(=O)C(C)(C)C` (stereo not drawn) [Example 88, (7Z)-7-{[(2,2-Dimethylpropanoyl)oxy]imino}-N-[2-(4-fluorophenyl)-2-hydroxyethyl]-N-methyl-4,5,6,7-tetrahydro-1-benzothiophene-3-sulfonamide], for which the IC50 was 0.42 nM.

`CN(CCc1ccncc1)S(=O)(=O)c1csc2c1CCC/C2=N/O` [Example 9, (7Z)-7-Hydroxyimino-4,5,6,7-tetrahydro-benzo[b]thiophene-3-sulfonic acid methyl-(2-pyridine-4-yl-ethyl)-amide] registered an IC50 of 0.82 nM.

In the case of `CN(CC(O)c1ccncc1)S(=O)(=O)c1csc2c1CCC/C2=N/O` (stereo not drawn) [Example 21, (7Z)-7-Hydroxyimino-4,5,6,7-tetrahydro-benzo[b]thiophene-3-sulfonic acid (2-hydroxy-2-pyridine-4-yl-ethyl)-methyl-amide], 5.6 nM corresponded to half-maximal inhibition (IC50).

With `CC(C)C(=NO)c1cc(S(=O)(=O)N(C)CC(O)c2ccc(F)cc2)cs1` (stereo not drawn) [Example 48, 5-(1-Hydroxyimino-2-methylpropyl)thiophene-3-sulfonic acid [2-(4-fluorophenyl)-2-hydroxyethyl]-methyl-amide], the IC50 worked out at 30 nM.

Staying with this experiment, now noted: concentration giving 50% suppression of alkaline phosphatase activity induced by IL-4 (1 ng/mL), 16 hours; 293 cells stably expressing STAT6 gene and STAT6 reporter gene.
As to `CC1CCc2c(S(=O)(=O)N(C)CC(O)c3ccc(F)cc3)csc2/C1=N\O` (stereo not drawn) [Example 32, (7Z)-7-Hydroxyimino-6-methyl-4,5,6,7-tetrahydrobenzo[b]-thiophene-3-sulfonic acid[(2-(4-fluorophenyl)-2-hydroxyethyl)]-methyl-amide], the IC50 came out at 10.1 nM.

As to `CCNC(=O)O/N=C1/CCCc2c(S(=O)(=O)N(C)CC(O)c3ccc(F)cc3)csc21` (stereo not drawn) [Example 83, (7z)-7-({[(Ethylamino)carbonyl]oxo}imino)-3-{[[2-(4-fluorophenyl)-2-hydroxyethyl](methyl)amino]sulfonyl}-4,5,6,7-tetrahydro-1-benzothiophene], half-maximal inhibition (IC50) required 34 nM.

For `CN(CCc1ccc(F)cc1)C(=O)c1csc2c1CCC/C2=N/O` [Example 124, (7Z)-7-Hydroxyimino-4,5,6,7-tetrahydrobenzo[b]thiophene-3-carboxylic acid[2-(4-fluorophenyl)ethyl]-methyl-amide], the midpoint of inhibition, the IC50, lay at 0.15 nM.

Compound “(7Z)-N-{1-(4-Fluorophenyl)-2-[(7-hydroxyimino-4,5,6,7-tetrahydrobe nzo[b]-thiophene-3-sulfonyl)methylamino]ethyl}acetamide [Example 23]” showed an IC50 of 9.5 nM.

`CN(CCc1ccc(F)c([N+](=O)[O-])c1)S(=O)(=O)c1csc2c1CCC/C2=N/O` [Example 6, (7Z)-7-Hydroxyimino-4,5,6,7-tetrahydro-benzo[b]thiophene-3-sulfonic acid[2-(4-fluoro-3-nitro-phenyl)-ethyl]-methyl-amide] showed an IC50 of 4.9 nM.

`C/C(=N\O)c1cc(S(=O)(=O)N(C)CCc2ccc(F)cc2)c(N)s1` [Example 61, 2-Amino-5-[(1E)-hydroxyimino-ethyl]-thiophene-3-sulfonic acid [2-(4-fluorophenyl)-ethyl]-methyl-amide] yielded an IC50 of 66.7 nM.

In turn, `CN(CC(O)c1ccc(F)cc1F)S(=O)(=O)c1csc2c1CCC/C2=N/O` (stereo not drawn) [Example 17, (7Z)-7-Hydroxyimino-4,5,6,7-tetrahydro-benzo[b]thiophene-3-sulfonic acid[2-(2,4-difluorophenyl)-2-hydroxyethyl]-methyl-amide] gave an IC50 of 15.4 nM.

Compound `C/C(=N/O)c1cc(S(=O)(=O)N(C)CC(O)c2ccc(F)cc2)cs1` (stereo not drawn) [Example 44] returned an IC50 of 0.63 nM.

Regarding `C/C(=N/O)c1ccc(S(=O)(=O)N(C)CCc2ccc(F)cc2)s1` [Example 37], the IC50 was determined as 30 nM.

As to `CC1CCc2c(S(=O)(=O)N(C)CCc3ccc(F)cc3)csc2/C1=N\O` (stereo not drawn) [Example 31, (7Z)-7-Hydroxyimino-6-methyl-4,5,6,7-tetrahydrobenzo[b]-thiophene-3-sulfonic acid[(2-(4-fluorophenyl)ethyl)]-methyl-amide], the 50% inhibitory concentration (IC50) was 4.3 nM.

As to `CN(CCc1ccc(F)cc1)S(=O)(=O)c1csc2c1CCC/C2=N/O` [Example 3, (7Z)-7-Hydroxyimino-4,5,6,7-tetrahydro-benzo[b]thiophene-3-sulfonic acid[2-(4-fluorophenyl)-ethyl]-methyl-amide], the IC50 stood at 0.6 nM.

`CN(CC(O)c1ccc(F)cc1)S(=O)(=O)c1csc2c1CCC/C2=N\O` (stereo not drawn) [Example 2, (7E)-7-Hydroxyimino-4,5,6,7-tetrahydro-benzo[b]thiophene-3-sulfonic acid[2-(4-fluorophenyl)-2-hydroxyethyl]-methyl-amide]: the midpoint of inhibition, the IC50, lay at 0.22 nM.

`CCc1cccc(NC(=O)O/N=C2/CCCc3c(S(=O)(=O)N(C)CC(O)c4ccc(F)cc4)csc32)c1` (stereo not drawn) [Example 66, (7Z)-7-({[(3-Ethylanilino)carbonyl]oxo}imino)-3-{[[2-(4-fluorophenyl)-2-hydroxyethyl](methyl)amino]sulfonyl}-4,5,6,7-tetrahydro-1-benzothiophene]: the IC50 is 16 nM.

For the origin of these results see patent US7217723B2, “Heterocyclic compound having oxime group” (Eisai Co., Ltd., priority 2004, dated 2007).
